Assay [1] addresses T1, SrLDC (lysine decarboxylase from Selenomonas ruminantium) (Pseudoselenomonas ruminantium, UniProt O50657).
T1 construct: gene ldc; residues 1-399 as printed (count probably includes the C-terminal 6xHis; sheet domain ends at Val393); pET-22b(+), C-terminal 6xHis kept; E. coli BL21(DE3)-T1R
The assay is described as follows: X-ray crystal structure, […] Å. Type of assay: binding. Conditions: PLP-complexed crystal soaked with 10 mM L-lysine for 30 min; cadaverine observed instead; pH 4.2; active site at dimer interface.

For assay [2], the target named is T1, SrLDC (lysine decarboxylase from Selenomonas ruminantium). Briefly: isothermal titration calorimetry, independent binding model. For orientation: ITC needs no label: the signal is the heat of the interaction.
Assay [3] has as its target Lysine decarboxylase from Selenomonas ruminantium (Selenomonas ruminantium). Briefly: crystal structure; three crystal forms: apo I (P43212, one molecule per asymmetric unit, dimer generated by crystallographic symmetry), apo II (C2, a dimer in the asymmetric unit), PLP/cadaverine complex (P6322, one molecule per asymmetric unit); hanging-drop vapor diffusion at 20°C; protein in 40 mM Tris-HCl, pH 8.0.

In general, Kd refers to the constant that tells how readily two partners part at equilibrium. Higher therefore signals a looser complex. In general, stoichiometry N refers to a count of units in the complex or per binding partner.

T1 sequence (O50657 whole entry, the tested form may be a part): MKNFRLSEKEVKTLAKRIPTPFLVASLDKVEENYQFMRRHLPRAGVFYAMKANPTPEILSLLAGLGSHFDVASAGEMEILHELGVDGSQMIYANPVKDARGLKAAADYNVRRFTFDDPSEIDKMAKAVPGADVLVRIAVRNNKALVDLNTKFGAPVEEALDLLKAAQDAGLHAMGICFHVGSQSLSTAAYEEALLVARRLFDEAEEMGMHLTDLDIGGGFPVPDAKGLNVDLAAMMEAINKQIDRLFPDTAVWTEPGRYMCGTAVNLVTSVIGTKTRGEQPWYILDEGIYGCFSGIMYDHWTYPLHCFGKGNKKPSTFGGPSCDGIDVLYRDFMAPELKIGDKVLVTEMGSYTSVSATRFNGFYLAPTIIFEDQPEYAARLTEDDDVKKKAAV

Take `NCCCCCN` [cadaverine]: the “X-ray crystal structure, 2.5 Å” value in assay [1] was “soaked the crystals of SrLDC complexed with PLP in L-lysine, a cadaverine molecule was observed”.

`Cc1ncc(COP(=O)(O)O)c(C=O)c1O` [PLP] gave a Kd in assay [2] of 72 µM.

Molecule “Lysine decarboxylase from Selenomonas ruminantium (enzyme)” registered a stoichiometry N in assay [3] of 2.

Source of the values: paper PMC5115768, “Crystal Structure and Pyridoxal 5-Phosphate Binding Property of Lysine Decarboxylase from Selenomonas ruminantium” (PLoS ONE, 2016).
